Assay results: PubChem BioAssay AID256 (DTP/NCI, 2004)
Several values for one entry are separate records, joined by “and”; a condition that tells them apart may be missing. Equal entries are not always repeated. Inconclusive results and toxic doses are left out.

System: CD2F1 mice, L1210 leukemia ip, survival T/C
Assay: NCI In Vivo Anticancer Drug Screen. Data for tumor model L1210 Leukemia (intraperitoneal) in CD2F1 (CDF1) mice
Conditions: higher = longer survival
Outline: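 Implant tumor; dose compound or vehicle; measure endpoint in both groups; report treated divided by control.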

[1] = endpoint: mean survival time, dose: 150.0 mg/kg/injection, schedule: Q01DX001 (ip), vehicle: saline
[2] = endpoint: mean survival time, dose: 100.0 mg/kg/injection, schedule: Q04DX003 (ip), vehicle: other
[3] = endpoint: mean survival time, dose: 25.0 mg/kg/injection, schedule: Q01DX009 (ip), vehicle: saline with Tween-80
[4] = endpoint: mean survival time, dose: 50.0 mg/kg/injection, schedule: Q01DX009 (ip), vehicle: saline with Tween-80
[5] = endpoint: mean survival time, dose: 100.0 mg/kg/injection, schedule: Q01DX009 (ip), vehicle: saline with Tween-80
[6] = endpoint: mean survival time, dose: 100.0 mg/kg/injection, schedule: Q01DX001 (ip), vehicle: saline with Tween-80
[7] = endpoint: mean survival time, dose: 200.0 mg/kg/injection, schedule: Q01DX001 (ip), vehicle: saline with Tween-80
[8] = endpoint: mean survival time, dose: 400.0 mg/kg/injection, schedule: Q01DX001 (ip), vehicle: saline with Tween-80
[9] = endpoint: mean survival time, dose: 100.0 mg/kg/injection, schedule: Q04DX003 (ip), vehicle: saline with Tween-80
[10] = endpoint: mean survival time, dose: 200.0 mg/kg/injection, schedule: Q04DX003 (ip), vehicle: saline with Tween-80
[11] = endpoint: mean survival time, dose: 400.0 mg/kg/injection, schedule: Q04DX003 (ip), vehicle: saline with Tween-80

[Cl][Pt+2][Cl].[NH-]c1ccc(F)cc1.[NH-]c1ccc(F)cc1
T/C (endpoint: mean survival time, dose: 3.13 mg/kg/injection, schedule: Q04DX003 (ip), vehicle: distilled water + Tween-80): 102 % of control | T/C (endpoint: mean survival time, dose: 6.25 mg/kg/injection, schedule: Q04DX003 (ip), vehicle: distilled water + Tween-80): 104 % of control | T/C (endpoint: mean survival time, dose: 12.5 mg/kg/injection, schedule: Q04DX003 (ip), vehicle: distilled water + Tween-80): 102 % of control | T/C (endpoint: mean survival time, dose: 25.0 mg/kg/injection, schedule: Q04DX003 (ip), vehicle: distilled water + Tween-80): 108 % of control | T/C (endpoint: mean survival time, dose: 50.0 mg/kg/injection, schedule: Q04DX003 (ip), vehicle: distilled water + Tween-80): 108 % of control | T/C (endpoint: mean survival time, dose: 100.0 mg/kg/injection, schedule: Q04DX003 (ip), vehicle: distilled water + Tween-80): 93 % of control

CCCCCCCN=NC
T/C (endpoint: mean survival time, dose: 75.0 mg/kg/injection, schedule: Q01DX001 (ip), vehicle: other): 96 % of control | T/C (endpoint: mean survival time, dose: 150.0 mg/kg/injection, schedule: Q01DX001 (ip), vehicle: other): 100 % of control | T/C (endpoint: mean survival time, dose: 300.0 mg/kg/injection, schedule: Q01DX001 (ip), vehicle: other): 93 % of control

Nc1ccccc1-c1nc2ccncc2[nH]1
T/C (endpoint: mean survival time, dose: 75.0 mg/kg/injection, schedule: Q01DX001 (ip), vehicle: saline): 100 % of control | T/C [1]: 98 % of control

[CH3][Sn]1([CH3])[O]C2C(CO)OC(n3cnc4c(=O)[nH]c(N)nc43)C2[O]1 (stereo not given)
T/C (endpoint: mean survival time, dose: 12.5 mg/kg/injection, schedule: Q01DX005 (ip), vehicle: other): 98 % of control | T/C (endpoint: mean survival time, dose: 25.0 mg/kg/injection, schedule: Q01DX005 (ip), vehicle: other): 101 % of control | T/C (endpoint: mean survival time, dose: 50.0 mg/kg/injection, schedule: Q01DX005 (ip), vehicle: other): 102 % of control | T/C (endpoint: mean survival time, dose: 100.0 mg/kg/injection, schedule: Q01DX005 (ip), vehicle: other): 93 % of control

COC1OC(COC(=O)c2ccc([N+](=O)[O-])cc2)C(SC#N)C1O (stereo not given)
T/C [1]: 93 % of control

C[SeH]C.C[SeH]C.O.O=S(=O)(O)O.[Pt]
T/C (endpoint: mean survival time, dose: 12.5 mg/kg/injection, schedule: Q04DX003 (ip), vehicle: other): 89 % of control | T/C (endpoint: mean survival time, dose: 25.0 mg/kg/injection, schedule: Q04DX003 (ip), vehicle: other): 101 % of control | T/C (endpoint: mean survival time, dose: 50.0 mg/kg/injection, schedule: Q04DX003 (ip), vehicle: other): 103 % of control | T/C [2]: 107 % of control

NC(=O)c1ncn(C2OCC(O)C(O)C2O)c1N (stereo not given)
T/C (endpoint: mean survival time, dose: 12.5 mg/kg/injection, schedule: Q01DX005 (ip), vehicle: water): 87 % of control and 95 % of control | T/C (endpoint: mean survival time, dose: 25.0 mg/kg/injection, schedule: Q01DX005 (ip), vehicle: water): 90 % of control and 93 % of control | T/C (endpoint: mean survival time, dose: 50.0 mg/kg/injection, schedule: Q01DX005 (ip), vehicle: water): 92 % of control | T/C (endpoint: mean survival time, dose: 100.0 mg/kg/injection, schedule: Q01DX005 (ip), vehicle: water): 98 % of control | T/C (endpoint: mean survival time, dose: 200.0 mg/kg/injection, schedule: Q01DX005 (ip), vehicle: water): 98 % of control and 95 % of control | T/C (endpoint: median survival time, dose: 12.5 mg/kg/injection, schedule: Q01DX005 (ip), vehicle: water): 96 % of control | T/C (endpoint: median survival time, dose: 25.0 mg/kg/injection, schedule: Q01DX005 (ip), vehicle: water): 106 % of control | T/C (endpoint: median survival time, dose: 50.0 mg/kg/injection, schedule: Q01DX005 (ip), vehicle: water): 102 % of control | T/C (endpoint: median survival time, dose: 100.0 mg/kg/injection, schedule: Q01DX005 (ip), vehicle: water): 98 % of control | T/C (endpoint: median survival time, dose: 200.0 mg/kg/injection, schedule: Q01DX005 (ip), vehicle: water): 108 % of control

O=C(C=C(C(F)(F)F)C(F)(F)F)c1ccc(F)cc1
T/C [2]: 88 % of control

CCOC(=O)NCCB(O)O
T/C (endpoint: mean survival time, dose: 100.0 mg/kg/injection, schedule: Q04DX002 (ip), vehicle: saline): 100 % of control | T/C (endpoint: mean survival time, dose: 200.0 mg/kg/injection, schedule: Q04DX002 (ip), vehicle: saline): 88 % of control | T/C (endpoint: mean survival time, dose: 400.0 mg/kg/injection, schedule: Q04DX002 (ip), vehicle: saline): 95 % of control

COc1ccc(C(=O)/C=C/c2ccc(O)cc2)cc1
T/C (endpoint: mean survival time, dose: 37.5 mg/kg/injection, schedule: Q01DX009 (ip), vehicle: saline): 98 % of control | T/C (endpoint: mean survival time, dose: 75.0 mg/kg/injection, schedule: Q01DX009 (ip), vehicle: saline): 102 % of control | T/C (endpoint: mean survival time, dose: 150.0 mg/kg/injection, schedule: Q01DX009 (ip), vehicle: saline): 98 % of control

ClCc1ccc(Cl)c(Cl)c1Cl
T/C [3]: 100 % of control | T/C [4]: 100 % of control | T/C [5]: 100 % of control

COc1cccc2c1C(=O)c1c(O)c3c(c(O)c1C2=O)C[C@H](O)C[C@@H]3OC1CC(N)C(O)C(C)O1 (stereo not given in full)
T/C (endpoint: mean survival time, dose: 0.75 mg/kg/injection, schedule: Q01DX009 (ip), vehicle: saline): 107 % of control | T/C (endpoint: mean survival time, dose: 1.5 mg/kg/injection, schedule: Q01DX009 (ip), vehicle: saline): 105 % of control | T/C (endpoint: mean survival time, dose: 3.0 mg/kg/injection, schedule: Q01DX009 (ip), vehicle: saline): 111 % of control | T/C (endpoint: mean survival time, dose: 3.0 mg/kg/injection, schedule: Q01DX009 (ip), vehicle: water): 121 % of control | T/C (endpoint: mean survival time, dose: 6.0 mg/kg/injection, schedule: Q01DX009 (ip), vehicle: saline): 104 % of control | T/C (endpoint: mean survival time, dose: 12.0 mg/kg/injection, schedule: Q01DX009 (ip), vehicle: saline): 115 % of control | T/C (endpoint: mean survival time, dose: 12.0 mg/kg/injection, schedule: Q01DX009 (ip), vehicle: water): 118 % of control | T/C (endpoint: mean survival time, dose: 24.0 mg/kg/injection, schedule: Q01DX009 (ip), vehicle: water): 152 % of control

CC1(C)CCC2(CC1)CC(=O)OC(=O)C2
T/C [6]: 90 % of control | T/C [7]: 87 % of control | T/C [8]: 92 % of control

CCOC(=O)C(=O)Nc1cc(C)ccc1C
T/C (endpoint: mean survival time, dose: 6.25 mg/kg/injection, schedule: Q01DX009 (ip), vehicle: saline with Tween-80): 96 % of control | T/C (endpoint: mean survival time, dose: 12.5 mg/kg/injection, schedule: Q01DX009 (ip), vehicle: saline with Tween-80): 95 % of control | T/C [3]: 98 % of control

N#CC12C(=N)CCC1C1CC2C2C3C=CC(C3)C12 (stereo not given)
T/C [9]: 96 % of control | T/C [10]: 96 % of control | T/C [11]: 95 % of control

Cc1cc2c3ccc(C)[n+](C)c3ccc2n1C
T/C (endpoint: mean survival time, dose: 1.19 mg/kg/injection, schedule: Q01DX001 (ip), vehicle: saline): 103 % of control | T/C (endpoint: mean survival time, dose: 2.37 mg/kg/injection, schedule: Q01DX001 (ip), vehicle: saline): 109 % of control | T/C (endpoint: mean survival time, dose: 4.75 mg/kg/injection, schedule: Q01DX001 (ip), vehicle: saline): 97 % of control

C(=N\Nc1ccccc1)/c1ccc2c(c1)OCO2
T/C [6]: 100 % of control | T/C [5]: 97 % of control | T/C [7]: 101 % of control | T/C (endpoint: mean survival time, dose: 200.0 mg/kg/injection, schedule: Q01DX009 (ip), vehicle: saline with Tween-80): 104 % of control | T/C [8]: 95 % of control | T/C (endpoint: mean survival time, dose: 400.0 mg/kg/injection, schedule: Q01DX009 (ip), vehicle: saline with Tween-80): 100 % of control

[O-][n+]1ccc(-c2ccccc2)nc1
T/C (endpoint: mean survival time, dose: 50.0 mg/kg/injection, schedule: Q04DX002 (ip), vehicle: saline with Tween-80): 106 % of control | T/C (endpoint: mean survival time, dose: 100.0 mg/kg/injection, schedule: Q04DX002 (ip), vehicle: saline with Tween-80): 103 % of control | T/C (endpoint: mean survival time, dose: 200.0 mg/kg/injection, schedule: Q04DX002 (ip), vehicle: saline with Tween-80): 117 % of control

CCOC(=O)Nc1cc(N)c(N)c(=O)[nH]1
T/C (endpoint: mean survival time, dose: 100.0 mg/kg/injection, schedule: Q01DX001 (ip), vehicle: carboxymethylcellulose (CMC)): 102 % of control | T/C (endpoint: mean survival time, dose: 200.0 mg/kg/injection, schedule: Q01DX001 (ip), vehicle: carboxymethylcellulose (CMC)): 96 % of control | T/C (endpoint: mean survival time, dose: 400.0 mg/kg/injection, schedule: Q01DX001 (ip), vehicle: carboxymethylcellulose (CMC)): 102 % of control

CC(=O)Nc1ccc(F)cc1
T/C (endpoint: mean survival time, dose: 100.0 mg/kg/injection, schedule: Q04DX003 (ip), vehicle: saline): 105 % of control | T/C (endpoint: mean survival time, dose: 200.0 mg/kg/injection, schedule: Q04DX003 (ip), vehicle: saline): 100 % of control | T/C (endpoint: mean survival time, dose: 400.0 mg/kg/injection, schedule: Q04DX003 (ip), vehicle: saline): 95 % of control

CCC1=CC(C)(C)CC(C)=C1 (tested in a mixture with another compound)
T/C [4]: 110 % of control | T/C [5]: 100 % of control | T/C [9]: 96 % of control | T/C [10]: 96 % of control | T/C [11]: 93 % of control
